# Experiment: Example 2: liver biomarkers (albumin, gamma glutamyl transferase, total bilirubin, ALT, AST, ALP) in short bowel syndrome patients, every four weeks for 24 weeks; also sorted by >10% change from baseline
# Type: in vivo, Human
# Conditions: 0.05 mg/kg/d; for Alkaline Phosphatase: subjects Within 10% of Baseline / Alkaline Phosphatase: subjects with >10% decrease from Baseline / Alkaline Phosphatase: subjects with >10% increase from Baseline / Bilirubin: subjects Within 10% of Baseline / Bilirubin: subjects with >10% decrease from Baseline / Bilirubin: subjects with >10% increase from Baseline / ALT: subjects Within 10% of Baseline / ALT: subjects with >10% decrease from Baseline / ALT: subjects with >10% increase from Baseline / AST: subjects Within 10% of Baseline / AST: subjects with >10% decrease from Baseline / AST: subjects with >10% increase from Baseline / Albumin: subjects Within 10% of Baseline / Albumin: subjects with >10% decrease from Baseline / Albumin: subjects with >10% increase from Baseline: m = 38
# Experimental: To further confirm the results of Example 1, a further study was conducted involving more individuals and additional diagnostic biomarkers. Human patients with short bowel syndrome were divided into two groups: a control group (43 total individuals) to receive placebo, and an experimental group (42 total individuals) to receive teduglutide at 0.05 mg/kg/day throughout the study. Patients were treated by subcutaneous injection of placebo or the appropriate dose of teduglutide. Known biomarkers of liver function were monitored every four weeks, for 24 weeks. The liver biomarkers tested included albumin, gamma glutamyl transferase, total bilirubin, ALT and AST and ALP. Before administration of placebo or teduglutide, diagnostic biomarker levels were tested to establish a baseline for each individual.
# To determine the effect of GLP-2 on the levels of the diagnostic biomarkers, the average level of each biomarker was measured for the placebo and teduglutide treated groups for each visit. Furthermore, the average change from baseline was calculated using the established baseline values. For FIGS. 17-28, p-values were calculated using the t-test.
# P values are provided, which were calculated for each distribution of biomarker changes for each week using the chi-squared test.
smiles,measurement,setting,value
CC[C@H](C)[C@H](NC(=O)[C@H](Cc1ccccc1)NC(=O)[C@H](CC(=O)O)NC(=O)[C@H](CCCNC(=N)N)NC(=O)[C@H](C)NC(=O)[C@H](C)NC(=O)[C@H](CC(C)C)NC(=O)[C@H](CC(N)=O)NC(=O)[C@H](CC(=O)O)NC(=O)[C@H](CC(C)C)NC(=O)[C@@H](NC(=O)[C@@H](NC(=O)[C@H](CC(N)=O)NC(=O)[C@H](CCSC)NC(=O)[C@H](CCC(=O)O)NC(=O)[C@H](CC(=O)O)NC(=O)[C@H](CO)NC(=O)[C@H](Cc1ccccc1)NC(=O)[C@H](CO)NC(=O)CNC(=O)[C@H](CC(=O)O)NC(=O)CNC(=O)[C@@H](N)Cc1c[nH]cn1)[C@@H](C)O)[C@@H](C)CC)C(=O)N[C@@H](CC(N)=O)C(=O)N[C@@H](Cc1c[nH]c2ccccc12)C(=O)N[C@@H](CC(C)C)C(=O)N[C@H](C(=O)N[C@@H](CCC(N)=O)C(=O)N[C@H](C(=O)N[C@@H](CCCCN)C(=O)N[C@H](C(=O)N[C@H](C(=O)N[C@@H](CC(=O)O)C(=O)O)[C@@H](C)O)[C@@H](C)CC)[C@@H](C)O)[C@@H](C)CC [teduglutide],Alkaline Phosphatase: subjects Within 10% of Baseline,Week 16,7 (18.4%) n (%)
same,Alkaline Phosphatase: subjects with >10% decrease from Baseline,Week 16,23 (60.5%) n (%)
same,Alkaline Phosphatase: subjects with >10% increase from Baseline,Week 16,8 (21.1%) n (%)
same,Bilirubin: subjects Within 10% of Baseline,Week 16,5 (13.2%) n (%)
same,Bilirubin: subjects with >10% decrease from Baseline,Week 16,24 (63.2%) n (%)
same,Bilirubin: subjects with >10% increase from Baseline,Week 16,9 (23.7%) n (%)
same,"ALT Change from Baseline, Max",Week 20,24 U/L
same,"ALT Change from Baseline, Median",Week 20,−6.5 U/L
same,"ALT Change from Baseline, Min",Week 20,−55 U/L
same,"ALT Observed Value, Max",Week 20,149 U/L
same,"ALT Observed Value, Min",Week 20,5 U/L
same,"AST Change from Baseline, Max",Week 20,10 U/L
same,"AST Change from Baseline, Mean",Week 20,−4.2 U/L
same,"AST Change from Baseline, Median",Week 20,−2.5 U/L
same,"AST Change from Baseline, Min",Week 20,−38 U/L
same,"AST Observed Value, Max",Week 20,77 U/L
same,"AST Observed Value, Min",Week 20,10 U/L
same,"Albumin Change from Baseline, Max",Week 20,4 g/L
same,"Albumin Change from Baseline, Mean",Week 20,-0.6 g/L
same,"Albumin Change from Baseline, Median",Week 20,-1 g/L
same,"Albumin Change from Baseline, Min",Week 20,-8 g/L
same,"Albumin Observed Value, Max",Week 20,49 g/L
same,"Albumin Observed Value, Median",Week 20,43 g/L
same,"Albumin Observed Value, Min",Week 20,33 g/L
same,"Alkaline Phosphatase Change from Baseline, Max",Week 20,77 U/L
same,"Alkaline Phosphatase Change from Baseline, Min",Week 20,−117 U/L
same,"Alkaline Phosphatase Observed Value, Max",Week 20,303 U/L
same,"Alkaline Phosphatase Observed Value, Min",Week 20,54 U/L
same,"Bilirubin Change from Baseline, Max",Week 20,2.8 µmol/L
same,"Bilirubin Change from Baseline, Median",Week 20,-1.7 µmol/L
same,"Bilirubin Change from Baseline, Min",Week 20,-25.5 µmol/L
same,"Bilirubin Observed Value, Max",Week 20,31.9 µmol/L
same,"Bilirubin Observed Value, Min",Week 20,3.7 µmol/L
same,"Gamma Glutamyl Transferase Change from Baseline, Max",Week 20,57 U/L
same,"Gamma Glutamyl Transferase Change from Baseline, Mean",Week 20,−9.6 U/L
same,"Gamma Glutamyl Transferase Change from Baseline, Median",Week 20,−8 U/L
same,"Gamma Glutamyl Transferase Change from Baseline, Min",Week 20,−146 U/L
same,"Gamma Glutamyl Transferase Observed Value, Max",Week 20,261 U/L
same,"Gamma Glutamyl Transferase Observed Value, Min",Week 20,8 U/L
same,ALT: subjects Within 10% of Baseline,Week 20,10 (26.3%) n (%)
same,ALT: subjects with >10% decrease from Baseline,Week 20,23 (60.5%) n (%)
same,ALT: subjects with >10% increase from Baseline,Week 20,5 (13.2%) n (%)
same,AST: subjects Within 10% of Baseline,Week 20,11 (28.9%) n (%)
same,AST: subjects with >10% decrease from Baseline,Week 20,20 (52.6%) n (%)
same,AST: subjects with >10% increase from Baseline,Week 20,7 (18.4%) n (%)
same,Albumin: subjects Within 10% of Baseline,Week 20,37 (97.4%) n (%)
same,Albumin: subjects with >10% decrease from Baseline,Week 20,1 (2.6%) n (%)
same,Albumin: subjects with >10% increase from Baseline,Week 20,0 n (%)
same,Alkaline Phosphatase: subjects Within 10% of Baseline,Week 20,12 (31.6%) n (%)
same,Alkaline Phosphatase: subjects with >10% decrease from Baseline,Week 20,23 (60.5%) n (%)
same,Alkaline Phosphatase: subjects with >10% increase from Baseline,Week 20,3 (7.9%) n (%)
same,Bilirubin: subjects Within 10% of Baseline,Week 20,5 (13.2%) n (%)
same,Bilirubin: subjects with >10% decrease from Baseline,Week 20,25 (65.8%) n (%)
same,Bilirubin: subjects with >10% increase from Baseline,Week 20,8 (21.1%) n (%)
same,"ALT Change from Baseline, Max",Week 24,21 U/L
same,"ALT Change from Baseline, Median",Week 24,−7.5 U/L
same,"ALT Change from Baseline, Min",Week 24,−60 U/L
same,"ALT Observed Value, Max",Week 24,91 U/L
same,"ALT Observed Value, Min",Week 24,7 U/L
same,"AST Change from Baseline, Max",Week 24,14 U/L
same,"AST Change from Baseline, Mean",Week 24,−5.8 U/L
same,"AST Change from Baseline, Median",Week 24,−5 U/L
same,"AST Change from Baseline, Min",Week 24,−47 U/L
same,"AST Observed Value, Max",Week 24,73 U/L
same,"AST Observed Value, Median",Week 24,23 U/L
same,"AST Observed Value, Min",Week 24,11 U/L
same,"Albumin Change from Baseline, Max",Week 24,3 g/L
same,"Albumin Change from Baseline, Mean",Week 24,-0.4 g/L
same,"Albumin Change from Baseline, Median",Week 24,0 g/L
same,"Albumin Change from Baseline, Min",Week 24,-8 g/L
same,"Albumin Observed Value, Max",Week 24,48 g/L
same,"Albumin Observed Value, Median",Week 24,42 g/L
same,"Albumin Observed Value, Min",Week 24,33 g/L
same,"Alkaline Phosphatase Change from Baseline, Max",Week 24,33 U/L
same,"Alkaline Phosphatase Change from Baseline, Min",Week 24,−122 U/L
same,"Alkaline Phosphatase Observed Value, Max",Week 24,328 U/L
same,"Alkaline Phosphatase Observed Value, Median",Week 24,88 U/L
same,"Alkaline Phosphatase Observed Value, Min",Week 24,49 U/L
same,"Bilirubin Change from Baseline, Max",Week 24,3.3 µmol/L
same,"Bilirubin Change from Baseline, Min",Week 24,-26.1 µmol/L
same,"Bilirubin Observed Value, Max",Week 24,31.3 µmol/L
same,"Bilirubin Observed Value, Median",Week 24,6.8 µmol/L
same,"Bilirubin Observed Value, Min",Week 24,2.5 µmol/L
same,"Gamma Glutamyl Transferase Change from Baseline, Max",Week 24,46 U/L
same,"Gamma Glutamyl Transferase Change from Baseline, Median",Week 24,−6 U/L
same,"Gamma Glutamyl Transferase Change from Baseline, Min",Week 24,−144 U/L
same,"Gamma Glutamyl Transferase Observed Value, Max",Week 24,228 U/L
same,"Gamma Glutamyl Transferase Observed Value, Min",Week 24,7 U/L
same,ALT: subjects Within 10% of Baseline,Week 24,10 (26.3%) n (%)
same,ALT: subjects with >10% decrease from Baseline,Week 24,24 (63.2%) n (%)
same,ALT: subjects with >10% increase from Baseline,Week 24,4 (10.5%) n (%)
same,AST: subjects Within 10% of Baseline,Week 24,8 (21.1%) n (%)
same,AST: subjects with >10% decrease from Baseline,Week 24,24 (63.2%) n (%)
same,AST: subjects with >10% increase from Baseline,Week 24,6 (15.8%) n (%)
same,Albumin: subjects Within 10% of Baseline,Week 24,36 (94.7%) n (%)
same,Albumin: subjects with >10% decrease from Baseline,Week 24,2 (5.3%) n (%)
same,Albumin: subjects with >10% increase from Baseline,Week 24,0 n (%)
same,Alkaline Phosphatase: subjects Within 10% of Baseline,Week 24,9 (23.7%) n (%)
same,Alkaline Phosphatase: subjects with >10% decrease from Baseline,Week 24,23 (60.5%) n (%)
same,Alkaline Phosphatase: subjects with >10% increase from Baseline,Week 24,6 (15.8%) n (%)
same,Bilirubin: subjects Within 10% of Baseline,Week 24,6 (15.8%) n (%)
same,Bilirubin: subjects with >10% decrease from Baseline,Week 24,26 (68.4%) n (%)
same,Bilirubin: subjects with >10% increase from Baseline,Week 24,6 (15.8%) n (%)
